Patent publication US20070197470A1, “Use of n-acetyl-d-aminogylcosamine in preparation of drugs for modulating microorganisms on mucous membrane” (priority 2003, published 2007)
“Also recorded” adds a separate entry of the source.

Legend:
[1] = in vivo
Text: • 1. Acute toxicity test: including tests of administrating medicine orally, intravenous injection and maximum limit amount for administration; • 2. Ames test; • 3. Micronucleus test of bone marrow cell of small mouse; • 4. Abnormal sexual test for the sperm of mouse; • 5. Abnormal aberrance test for the chromosin of mouse's testis; • 6. Chronic lethal test; • 7. Subchronic toxicity (feed for 90 days) test; • 8. Traditional deformity-inducing test;

[2] = test system: patients with symptoms of microecological imbalance; assay: Clinical trial, effects for regulating mucocutaneous microecology; assay type: in vivo, human
Text: (§1) 56 patients with symptoms of microecological imbalance, including 20 patients with oral complaints, such as halitosis, oral infections caused by clinically unknown pathogenic bacteria, 20 patients with subaxilary complaints, such as slimy sensation or bromidrosis, and 16 patients with low […] of gynecological genitourinary tract caused by unknown source of infectious pathogen, were separately treated by mouthwash or topical sprinkle of 1% N-acetyl-D-glucosamine aqueous solution twice daily for 7 days. […] Observation of effects of N-acetyl-D-glucosamine for regulating mucocutaneous microecology

[3] = test system: flora of mucocutaneous microecology; assay: Clinical trial, detection of flora of mucocutaneous microecology (detection rates of various bacteria); assay type: in vivo, human
Text: as §1, with “Detection results” for “Observation”, “flora” for “effects”, “of” for “of N-acetyl-D-glucosamine for regulating”, “microecology regulated by N-acetyl-D-glucosamine (detection rates of various bacteria)” for “microecology”

Pseudomonas aeruginosa = assay: Tests of bacterial colonization resistance; assay type: in vivo; details: intestinal mucosa of test animals, different concentrations
Method: Pseudomonas aeruginosa is used in the tests of bacterial colonization resistance of the compound of formula (I). The intestinal mucosa of test animals that were pre-administrated with Pseudomonas aeruginosus and were treated by the compound of formula (I) with different concentrations was detected by in situ colonization, qualitative and quantitative methods.

Proteus Mirabilis = assay: Promoting wave test (bio-wave model); assay type: cell-based
Text: 1.1 Samples: Pure Compound of Formula (I)
• Strain: Proteus Mirabilis (which should comply with the following biological reaction characteristics: dynamics (+), urease (+), lactose (−), glucose (+), H2S (−), phenylalanine deaminase (+). • Culture medium: modified LB culture medium (the component of the composition are: 1% trytones, 0.5% yeast extract, 1% sodium chloride, 0.1% glucose, 0.002% TTC, and pH=7.2˜7.4). 1.3 Experimental Method:
The experiment adopted a bio-wave model for studying the promoting wave function of the compound of formula (I).

[4] = Microecological imbalance of gynecological genitourinary tract, 16 cases
[5] = Subaxillary slimy sensation, 10 cases

SMILES: CC(=O)N[C@@H]1[C@@H](O)[C@H](O)[C@@H](CO)O[C@H]1O [N-acetyl-D-glucosamine]
- acute test dosage relative to the injection dosage for human being [1]: 300 times
- dosage at which the acute toxicosis reaction had not appeared [1]: more than 2 g/kg
- maximum dosage with no intoxication reaction ([1]; 4 weeks): 1 g/kg
- total effective rate ([2]; 56 patients, 1% aqueous solution mouthwash or topical sprinkle twice daily for 7 days): 87.8%
- Cured ([2]; Bromidrosis, 10 cases): 5
- Effective ([2]; Bromidrosis, 10 cases): 3
- Effective rate (%) ([2]; Bromidrosis, 10 cases): 80%
- Ineffective ([2]; Bromidrosis, 10 cases): 2
- Cured [2, 4]: 7
- Effective [2, 4]: 6
- Effective rate (%) [2, 4]: 81.3%
- Ineffective [2, 4]: 3
- Cured ([2]; Oral compliant, 20 cases): 8
- Effective ([2]; Oral compliant, 20 cases): 10
- Effective rate (%) ([2]; Oral compliant, 20 cases): 90%
- Ineffective ([2]; Oral compliant, 20 cases): 2
- Cured [2, 5]: 7
- Effective [2, 5]: 3
- Effective rate (%) [2, 5]: 100%
- Ineffective [2, 5]: 0
- detection rate of helicoids ([3]; Buccal cavity (salivary bacteria), after regulation, before regulation 12): helicoids (0)
- detection rate of corynebacterium diphtheroides ([3]; Buccal cavity (salivary bacteria), after regulation, before regulation 18): diphtheroides (8),
- detection rate of Streptococcus mutans ([3]; Buccal cavity (salivary bacteria), after regulation, before regulation 23): (7), streptococcus
- detection rate of streptococcus salivarius ([3]; Buccal cavity (salivary bacteria), after regulation, before regulation 40): salivarius (90),
- detection rate of Neisser's coccus ([3]; Buccal cavity (salivary bacteria), after regulation, before regulation 50): (95), corynebacterium
- detection rate of bacteroides ([3]; Buccal cavity (salivary bacteria), after regulation, before regulation 60): bacteroides (30),
- detection rate of aerobic coryneform bacteria ([3]; Skin of axillary fossa, after regulation, before regulation 18): bacteria (12), pityro-
- detection rate of Staphylococci ([3]; Skin of axillary fossa, after regulation, before regulation 20): Staphylococci (36),
- detection rate of pityrosporum furfur ([3]; Skin of axillary fossa, after regulation, before regulation 24): sporum furfur (15),
- detection rate of bacillus polymyxa odour ([3]; Skin of axillary fossa, after regulation, before regulation 40): odour (9)
- detection rate of bacillus acidi lactici ([3]; Woman's genitourinary tract, after regulation, before regulation 18): acidi lactici (60),
- detection rate of bacillus coli ([3]; Woman's genitourinary tract, after regulation, before regulation 29): bacillus coli (10)
- detection rate of Staphylococcus epidermidis ([3]; Woman's genitourinary tract, after regulation, before regulation 38): midis (35), bacillus
- change of flora after use ([3]; buccal cavity, skin of axillary fossa and woman's genitourinary tract): autochthonous flora increased and allochthonous flora decreased
- colonization resistance against Pseudomonas aeruginosa (Pseudomonas aeruginosa): increased with the increase of its concentration
- promoting wave function (Proteus Mirabilis): many fine waves on each ring emerged; also recorded: has promoting function to bio-waves
